Measured values reported in patent US20250154180A1, “CRK-LIKE (CRKL) ADAPTOR PROTEIN INHIBITORS AND METHODS OF MAKING AND USING THE SAME” (Rutgers, The State University of New Jersey, priority 2022, published 2025).
Read-outs that look alike come from different tables or passages of the source.

What was measured:
Sk-Hep1 tumor = assay: HCC Sk-Hep1 xenograft model; type: in vivo, NSG mice; settings: four-group study, 5.0 μg/g oral gavage
Excerpt: To further test whether the tumor growth inhibition effect of NC5 applied to other solid tumors, the HCC-Sk-Hep1cell line and PDAC-BXPC3 cell line xenograft models were used. Subcutaneous injection of 1.5×10^6 SK-Hep1 or BXPC3 cells in NSG mice, Six-ten days after tumor cell injection, the palpable tumor in NSG mice was confirmed.
To test the effects of the disclosed compounds on the xenograft mouse models, the HCC-Sk-Hep1 cell line xenograft model in NSG mice and 4T1-Luc orthotopic syngeneic breast tumor model in Balb/c mice was used. After confirming the palpable tumor in NSG or Balb/c mice. […] Compound III is referred to as “NC5-140-1” and Compound I is referred to as “NC5-140-2” in FIGS. 11A-11C.

BXPC3 cells = assay: XTT cell viability, BXPC3; type: cell-based; settings: 24 and 48 hours
Method: (§1) FIGS. 8A-8C show results using MDA-MB-231 cells (FIG. 8A) or BXPC3 cells (FIG. 8B), wherein the cells were treated with 5 μM of NC5, Compound III (referred to as “NC5-140-1” in FIGS. 8A-8C), and Compound I (referred to as “NC5-140-2” in FIGS. 8A-8C) for 24-48 hours, wherein the XTT assay was used to determine cell viability. The symbol indicates the significance of NC5 vs. Compounds I and/or III; *p<0.05. Data represent mean±SEM.
(§2) Compound embodiments, compound III and compound I, were also made and evaluated. TNBC cells and PDAC cells were treated with a serial dose of original NC5 and modified NC5 derivatives for 24 and 48 hours. The cell viability will be measured by XTT assay. […] Compound III is referred to as “NC5-140-1” and Compound I is referred to as “NC5-140-2” in FIGS. 8A-8C.

Thermodynamic solubility = type: physicochemical; settings: thermodynamic from solid
Method: In this example, solubility measurement assays were performed using a phosphate buffer (also referred to as “PB”) system and a water system to evaluate thermodynamic solubility. The PB system was at a pH of 7.4 to mimic in vivo environments. For the PB system, the values were determined to be NC5: Thermodynamic Solubility pH=7.4<0.42 μg/mL; Compound III: Thermodynamic Solubility pH=7.4<0.48 μg/mL; and Compound I: Thermodynamic Solubility pH=7.4<0.48 μg/mL. Results for the water assay were as follows: NC5: Thermodynamic Solubility Water<0.42 μg/mL; Compound III: Thermodynamic Solubility Water<0.48 μg/mL; and Compound I: Thermodynamic Solubility Water<0.48 μg/mL.

MDA-MB-231 cells = assay: XTT cell viability, MDA-MB-231; type: cell-based; settings: 24 and 48 hours
Method: as §1, §2

Sk-Hep1 cells = assay: Growth inhibition of Sk-Hep1 cells (cell culture images); type: cell-based; settings: 5 μM, 24 hours

CC(C)=CCc1c2c(c(O)c3c(=O)c(-c4ccc5c(c4)OS(=O)(=O)O5)coc13)C=CC(C)(C)O2 [Compound I]
tumor growth (Sk-Hep1 tumor): inhibit tumor growth
median survival (Sk-Hep1 tumor; vehicle 26 days): 28.5 days
toxic effect compared with NC5 (XTT viability) (BXPC3 cells): better toxic effect than NC5
solubility thermodynamic (Thermodynamic solubility; aqueous buffer, phosphate buffer (PB) system, pH 7.4, read-out: Thermodynamic Solubility pH=7.4): < 0.48 µg/mL
solubility thermodynamic (Thermodynamic solubility; water system, read-out: Thermodynamic Solubility Water): < 0.48 µg/mL
toxic effect compared with NC5 (XTT viability) (MDA-MB-231 cells): comparable toxic effect as NC5
toxic effect compared with NC5 (growth inhibition) (Sk-Hep1 cells): better toxic effect than NC5
